For one assay, the species on record is Homo sapiens. The assay is described as follows: Inhibition of N-terminal GST-tagged recombinant human SOS1 S876K mutant (564 to 1049 residues) expressed in Escherichia coli assessed as reduction in KRAS G12C mutant activation at 10 uM by HTRF analysis relative to control. In general terms: In TR-FRET formats the signal depends on donor and acceptor labels being close together.

Assay [1] has as its target Cyclin-dependent kinase 4/cyclin D1 (Homo sapiens) (UniProt P11802+P24385). The assay is described as follows: Inhibition of CDK4-cyclin D1 (unknown origin) assessed as residual activity at 100 nM by KINOMEscan analysis relative to control. Type of assay: protein-complex assay.
Assay [2] deals with Macrophage colony-stimulating factor 1 receptor (Homo sapiens) (UniProt P07333). The assay is described as follows: Inhibition of CSF1R (unknown origin) assessed as residual activity at 100 nM by KINOMEscan analysis relative to control.
Assay [3] has as its target T1, Myotonin-protein kinase (Homo sapiens) (UniProt Q09013).
T1 sequence (whole entry): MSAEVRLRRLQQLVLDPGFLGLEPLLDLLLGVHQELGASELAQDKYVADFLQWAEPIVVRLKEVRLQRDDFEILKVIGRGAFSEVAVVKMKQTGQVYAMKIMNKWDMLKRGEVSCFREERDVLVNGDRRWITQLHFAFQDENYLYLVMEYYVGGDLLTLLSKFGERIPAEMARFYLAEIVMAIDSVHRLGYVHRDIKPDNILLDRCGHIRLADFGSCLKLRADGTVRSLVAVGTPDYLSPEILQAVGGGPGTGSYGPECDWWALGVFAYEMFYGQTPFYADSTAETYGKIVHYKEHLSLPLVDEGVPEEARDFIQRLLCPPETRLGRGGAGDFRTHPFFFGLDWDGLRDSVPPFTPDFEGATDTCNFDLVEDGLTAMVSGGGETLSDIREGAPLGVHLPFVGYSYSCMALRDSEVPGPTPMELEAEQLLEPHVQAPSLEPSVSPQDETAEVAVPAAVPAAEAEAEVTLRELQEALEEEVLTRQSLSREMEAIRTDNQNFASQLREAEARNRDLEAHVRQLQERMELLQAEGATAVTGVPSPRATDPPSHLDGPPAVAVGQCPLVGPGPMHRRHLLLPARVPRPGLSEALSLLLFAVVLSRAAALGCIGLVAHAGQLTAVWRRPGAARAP
The assay is described as follows: Inhibition of DMPK (unknown origin) assessed as residual activity at 100 nM by KINOMEscan analysis relative to control.

The target of assay [4] is Insulin receptor (Homo sapiens) (UniProt P06213). The assay is described as follows: Inhibition of INSR (unknown origin) assessed as residual activity at 100 nM by KINOMEscan analysis relative to control.
In assay [5] the target is T2, Tyrosine-protein kinase JAK3 (Homo sapiens) (UniProt P52333).
T2 sequence (whole entry): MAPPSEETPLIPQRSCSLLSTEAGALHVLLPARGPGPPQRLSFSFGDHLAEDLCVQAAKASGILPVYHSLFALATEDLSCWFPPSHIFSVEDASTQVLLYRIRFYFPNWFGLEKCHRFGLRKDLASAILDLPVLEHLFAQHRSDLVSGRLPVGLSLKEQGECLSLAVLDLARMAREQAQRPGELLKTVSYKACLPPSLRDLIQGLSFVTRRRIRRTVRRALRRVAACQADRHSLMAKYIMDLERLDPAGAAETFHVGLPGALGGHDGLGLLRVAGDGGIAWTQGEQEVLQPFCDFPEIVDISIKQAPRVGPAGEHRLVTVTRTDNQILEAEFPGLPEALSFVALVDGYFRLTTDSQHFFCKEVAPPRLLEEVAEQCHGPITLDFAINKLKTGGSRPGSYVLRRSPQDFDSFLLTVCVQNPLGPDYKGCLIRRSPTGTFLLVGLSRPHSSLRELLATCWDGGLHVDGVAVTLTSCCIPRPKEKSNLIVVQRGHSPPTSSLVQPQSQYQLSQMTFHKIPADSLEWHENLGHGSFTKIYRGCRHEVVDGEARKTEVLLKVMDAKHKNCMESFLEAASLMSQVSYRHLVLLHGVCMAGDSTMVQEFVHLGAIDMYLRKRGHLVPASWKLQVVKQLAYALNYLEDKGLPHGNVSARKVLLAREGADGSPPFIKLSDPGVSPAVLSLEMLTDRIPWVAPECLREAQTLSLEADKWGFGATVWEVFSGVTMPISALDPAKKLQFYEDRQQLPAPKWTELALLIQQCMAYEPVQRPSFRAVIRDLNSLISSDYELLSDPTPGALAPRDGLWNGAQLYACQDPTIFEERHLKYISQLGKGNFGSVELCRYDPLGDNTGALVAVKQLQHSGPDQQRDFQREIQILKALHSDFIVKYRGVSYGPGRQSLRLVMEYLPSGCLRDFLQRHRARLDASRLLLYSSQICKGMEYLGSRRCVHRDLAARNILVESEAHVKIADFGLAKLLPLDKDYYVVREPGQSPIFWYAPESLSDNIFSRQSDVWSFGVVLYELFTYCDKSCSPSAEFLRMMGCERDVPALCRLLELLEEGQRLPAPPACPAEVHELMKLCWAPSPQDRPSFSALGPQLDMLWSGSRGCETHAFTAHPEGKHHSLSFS
The assay is described as follows: Inhibition of JAK3 JH1 catalytic domain (unknown origin) assessed as residual activity at 100 nM by KINOMEscan analysis relative to control.

Assay [6] has as its target Serine/threonine-protein kinase 38 (Homo sapiens) (UniProt Q15208). The assay is described as follows: Inhibition of NDR1 (unknown origin) assessed as residual activity at 100 nM by KINOMEscan analysis relative to control.
The target of assay [7] is Serine/threonine-protein kinase PLK3 (Homo sapiens) (UniProt Q9H4B4). The assay is described as follows: Inhibition of PLK3 (unknown origin) assessed as residual activity at 100 nM by KINOMEscan analysis relative to control.
Assay [8] has as its target T3, Serine/threonine-protein kinase RIO1 (Homo sapiens) (UniProt Q9BRS2).
T3 sequence (whole entry): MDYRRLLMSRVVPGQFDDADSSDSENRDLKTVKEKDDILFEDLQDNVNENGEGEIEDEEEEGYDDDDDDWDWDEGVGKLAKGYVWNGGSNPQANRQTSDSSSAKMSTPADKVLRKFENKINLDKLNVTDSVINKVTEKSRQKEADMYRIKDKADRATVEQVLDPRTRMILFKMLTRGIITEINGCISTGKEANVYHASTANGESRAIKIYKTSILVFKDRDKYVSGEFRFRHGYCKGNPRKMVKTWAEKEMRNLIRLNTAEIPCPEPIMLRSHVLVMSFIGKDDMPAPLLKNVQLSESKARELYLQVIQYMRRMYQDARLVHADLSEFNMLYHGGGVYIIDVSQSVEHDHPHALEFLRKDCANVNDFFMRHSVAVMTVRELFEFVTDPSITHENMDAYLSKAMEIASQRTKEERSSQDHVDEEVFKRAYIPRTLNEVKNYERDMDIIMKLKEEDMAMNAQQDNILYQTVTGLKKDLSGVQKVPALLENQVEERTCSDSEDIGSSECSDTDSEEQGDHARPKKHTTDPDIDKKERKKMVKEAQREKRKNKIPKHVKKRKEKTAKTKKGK
The assay is described as follows: Inhibition of RIOK1 (unknown origin) assessed as residual activity at 100 nM by KINOMEscan analysis relative to control.

Molecules are shown by their SMILES.

Chain of Insulin receptor (Homo sapiens) (P06213 28-758 limits assumed): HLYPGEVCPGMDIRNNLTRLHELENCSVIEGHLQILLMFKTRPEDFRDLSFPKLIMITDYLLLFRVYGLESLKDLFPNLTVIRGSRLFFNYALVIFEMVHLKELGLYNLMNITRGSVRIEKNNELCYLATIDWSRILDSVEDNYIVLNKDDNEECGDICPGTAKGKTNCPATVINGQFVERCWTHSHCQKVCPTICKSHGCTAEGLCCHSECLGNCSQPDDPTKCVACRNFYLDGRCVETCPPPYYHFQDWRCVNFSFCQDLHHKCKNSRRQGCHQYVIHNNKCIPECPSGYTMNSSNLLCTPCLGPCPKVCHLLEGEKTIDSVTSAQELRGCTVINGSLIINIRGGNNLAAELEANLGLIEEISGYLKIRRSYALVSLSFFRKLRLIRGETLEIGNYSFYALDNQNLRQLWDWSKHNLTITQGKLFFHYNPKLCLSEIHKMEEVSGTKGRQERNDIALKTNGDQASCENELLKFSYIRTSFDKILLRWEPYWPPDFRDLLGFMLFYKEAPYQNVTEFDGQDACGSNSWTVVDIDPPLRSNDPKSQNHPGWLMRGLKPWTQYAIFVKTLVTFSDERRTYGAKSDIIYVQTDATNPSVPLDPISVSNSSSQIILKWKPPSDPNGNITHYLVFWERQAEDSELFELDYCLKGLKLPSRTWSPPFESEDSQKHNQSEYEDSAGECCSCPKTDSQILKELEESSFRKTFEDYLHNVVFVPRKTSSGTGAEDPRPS
Chain of Insulin receptor (Homo sapiens) (P06213 763-1382 limits assumed): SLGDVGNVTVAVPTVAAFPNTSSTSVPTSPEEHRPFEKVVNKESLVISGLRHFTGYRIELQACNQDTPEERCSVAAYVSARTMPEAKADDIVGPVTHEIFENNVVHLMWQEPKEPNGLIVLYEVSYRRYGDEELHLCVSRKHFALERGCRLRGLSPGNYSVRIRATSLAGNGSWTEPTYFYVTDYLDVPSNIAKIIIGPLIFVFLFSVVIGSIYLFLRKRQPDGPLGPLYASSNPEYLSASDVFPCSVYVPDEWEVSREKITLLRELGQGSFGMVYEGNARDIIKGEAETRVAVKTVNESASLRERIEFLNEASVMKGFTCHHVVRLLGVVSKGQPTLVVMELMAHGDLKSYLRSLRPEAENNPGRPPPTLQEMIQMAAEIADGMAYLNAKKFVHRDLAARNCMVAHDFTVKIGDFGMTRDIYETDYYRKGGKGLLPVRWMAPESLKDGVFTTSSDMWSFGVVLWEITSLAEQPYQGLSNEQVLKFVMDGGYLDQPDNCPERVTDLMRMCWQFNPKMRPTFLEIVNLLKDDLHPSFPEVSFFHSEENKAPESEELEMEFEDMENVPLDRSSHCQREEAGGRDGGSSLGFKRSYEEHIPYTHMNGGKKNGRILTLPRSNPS
Chain of Serine/threonine-protein kinase 38 (Homo sapiens) (Q15208 2-465 limits assumed): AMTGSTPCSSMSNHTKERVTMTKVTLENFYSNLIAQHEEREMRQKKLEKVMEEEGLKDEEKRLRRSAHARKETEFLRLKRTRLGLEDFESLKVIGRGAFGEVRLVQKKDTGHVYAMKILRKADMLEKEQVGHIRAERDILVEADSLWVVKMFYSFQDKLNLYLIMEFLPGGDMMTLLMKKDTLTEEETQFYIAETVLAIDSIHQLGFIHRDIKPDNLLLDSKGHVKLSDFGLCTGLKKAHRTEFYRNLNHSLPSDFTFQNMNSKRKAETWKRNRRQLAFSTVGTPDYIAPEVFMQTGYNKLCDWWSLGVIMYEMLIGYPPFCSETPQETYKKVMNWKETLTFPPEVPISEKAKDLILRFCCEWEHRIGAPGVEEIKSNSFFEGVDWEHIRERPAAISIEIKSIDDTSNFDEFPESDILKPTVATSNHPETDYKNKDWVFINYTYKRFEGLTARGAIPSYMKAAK
Chain of Macrophage colony-stimulating factor 1 receptor (Homo sapiens) (P07333 whole entry): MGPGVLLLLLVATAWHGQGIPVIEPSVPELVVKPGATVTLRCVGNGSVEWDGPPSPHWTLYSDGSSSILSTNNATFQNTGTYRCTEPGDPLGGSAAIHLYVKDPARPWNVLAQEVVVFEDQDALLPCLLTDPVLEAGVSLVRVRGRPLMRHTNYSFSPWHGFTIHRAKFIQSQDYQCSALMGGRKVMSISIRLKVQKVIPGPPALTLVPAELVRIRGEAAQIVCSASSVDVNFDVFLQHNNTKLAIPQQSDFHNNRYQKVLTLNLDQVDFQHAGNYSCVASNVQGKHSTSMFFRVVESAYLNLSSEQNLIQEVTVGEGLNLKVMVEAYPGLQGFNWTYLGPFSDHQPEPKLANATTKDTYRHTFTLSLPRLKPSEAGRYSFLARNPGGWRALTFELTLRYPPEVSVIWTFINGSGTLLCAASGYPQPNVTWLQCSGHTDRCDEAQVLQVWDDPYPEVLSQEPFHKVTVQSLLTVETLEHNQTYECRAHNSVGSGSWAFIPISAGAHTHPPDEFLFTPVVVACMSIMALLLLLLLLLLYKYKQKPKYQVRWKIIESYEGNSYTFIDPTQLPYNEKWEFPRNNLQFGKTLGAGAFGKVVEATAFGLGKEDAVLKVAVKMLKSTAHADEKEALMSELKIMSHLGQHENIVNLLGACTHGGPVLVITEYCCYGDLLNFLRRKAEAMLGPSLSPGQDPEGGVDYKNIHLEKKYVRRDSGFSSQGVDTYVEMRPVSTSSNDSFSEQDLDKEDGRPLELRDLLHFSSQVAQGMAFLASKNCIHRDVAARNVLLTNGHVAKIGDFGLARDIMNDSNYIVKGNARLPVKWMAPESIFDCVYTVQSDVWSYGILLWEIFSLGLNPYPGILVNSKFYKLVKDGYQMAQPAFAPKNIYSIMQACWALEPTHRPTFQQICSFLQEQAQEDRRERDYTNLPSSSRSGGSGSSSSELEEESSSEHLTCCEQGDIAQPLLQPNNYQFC
Chain of Serine/threonine-protein kinase PLK3 (Homo sapiens) (Q9H4B4 whole entry, looked up): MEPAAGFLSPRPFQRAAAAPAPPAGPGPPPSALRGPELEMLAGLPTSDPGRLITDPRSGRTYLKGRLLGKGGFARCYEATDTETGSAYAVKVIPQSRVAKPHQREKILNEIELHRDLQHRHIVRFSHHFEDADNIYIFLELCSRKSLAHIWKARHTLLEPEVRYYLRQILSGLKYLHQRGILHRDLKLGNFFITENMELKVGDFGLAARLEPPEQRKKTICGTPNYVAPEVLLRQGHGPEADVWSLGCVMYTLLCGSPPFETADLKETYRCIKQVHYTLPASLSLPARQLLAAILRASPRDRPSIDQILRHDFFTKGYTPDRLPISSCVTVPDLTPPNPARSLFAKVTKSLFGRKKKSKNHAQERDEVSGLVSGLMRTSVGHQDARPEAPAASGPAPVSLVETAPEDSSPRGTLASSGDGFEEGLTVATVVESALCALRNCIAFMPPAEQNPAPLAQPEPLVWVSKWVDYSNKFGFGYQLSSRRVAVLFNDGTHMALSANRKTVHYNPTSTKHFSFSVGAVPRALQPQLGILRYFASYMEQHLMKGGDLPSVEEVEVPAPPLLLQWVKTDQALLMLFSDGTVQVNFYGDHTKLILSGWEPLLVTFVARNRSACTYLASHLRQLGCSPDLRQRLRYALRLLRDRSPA

In the case of `COc1cc2ncnc(N[C@H](C)c3cccc4ccccc34)c2cc1OC`, the inhibition (as a rule, the relative decrease from the control value, in per cent) in the assay listed under Homo sapiens was found to be 102%. Moreover, the Activity was determined as 92% in assay [1]; 100% in assay [2]; 100% in [3]; 88% in [4]; 84% in assay [5]; 80% in assay [6]. Further, the Activity in [7] was found to be 83%; in assay [8], 58%.

The record behind these values is ChEMBL document CHEMBL5678818, “Discovery of potent SOS1 inhibitors that block RAS activation via disruption of the RAS-SOS1 interaction” (Proc Natl Acad Sci U S A, 2019).
